According to PubChem BioAssay (NCI):
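Growth conditions: 96-well plates. Treatment: test compound, 48 hours, 5 concentrations. Analysis: linear interpolation between bracketing concentrations; unreached endpoints set to highest concentration. The concentration for full growth arrest is given as TGI.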

Legend:
Experiment in all cases: inhibition of tumour cell growth, NCI panel, 48 h
KM12 colon = tested on: KM12 colon
HCC-2998 colon = tested on: HCC-2998 colon
TK-10 renal = tested on: TK-10 renal
KM20L2 colon = tested on: KM20L2 colon
SF-295 CNS = tested on: SF-295 CNS
SF-539 CNS = tested on: SF-539 CNS
EKVX NSCLC = tested on: EKVX NSCLC
NCI-H522 lung = tested on: NCI-H522 lung
SR leukemia = tested on: SR leukemia
K-562 leukemia = tested on: K-562 leukemia
HOP-18 NSCLC = tested on: HOP-18 NSCLC
SK-OV-3 ovarian = tested on: SK-OV-3 ovarian
HT29 colon = tested on: HT29 colon
UO-31 renal = tested on: UO-31 renal
SK-MEL-5 melanoma = tested on: SK-MEL-5 melanoma
LXFL 529 NSCLC = tested on: LXFL 529 NSCLC
MALME-3M melanoma = tested on: MALME-3M melanoma
U251 CNS = tested on: U251 CNS
786-0 renal = tested on: 786-0 renal
NCI-H460 lung = tested on: NCI-H460 lung
SK-MEL-28 melanoma = tested on: SK-MEL-28 melanoma
DLD-1 colon = tested on: DLD-1 colon
HOP-62 NSCLC = tested on: HOP-62 NSCLC
SW-620 colon = tested on: SW-620 colon
HCT-15 colon = tested on: HCT-15 colon
A498 renal = tested on: A498 renal
M19-MEL melanoma = tested on: M19-MEL melanoma
COLO 205 colon = tested on: COLO 205 colon
HCT-116 colon = tested on: HCT-116 colon
HL-60(TB) leukemia = tested on: HL-60(TB) leukemia
UACC-62 melanoma = tested on: UACC-62 melanoma
SK-MEL-2 melanoma = tested on: SK-MEL-2 melanoma
DMS 273 small cell lung = tested on: DMS 273 small cell lung
SN12C renal = tested on: SN12C renal
RPMI-8226 leukemia = tested on: RPMI-8226 leukemia
OVCAR-4 ovarian = tested on: OVCAR-4 ovarian
SNB-75 CNS = tested on: SNB-75 CNS
M14 melanoma = tested on: M14 melanoma
ACHN renal = tested on: ACHN renal
OVCAR-3 ovarian = tested on: OVCAR-3 ovarian
SF-268 CNS = tested on: SF-268 CNS
NCI-H226 lung = tested on: NCI-H226 lung
A549 NSCLC = tested on: A549 NSCLC
NCI-H23 lung = tested on: NCI-H23 lung
UACC-257 melanoma = tested on: UACC-257 melanoma
OVCAR-5 ovarian = tested on: OVCAR-5 ovarian
OVCAR-8 ovarian = tested on: OVCAR-8 ovarian
MOLT-4 leukemia = tested on: MOLT-4 leukemia
CAKI-1 renal = tested on: CAKI-1 renal
IGROV1 ovarian = tested on: IGROV1 ovarian
SNB-19 CNS = tested on: SNB-19 CNS
DMS 114 small cell lung = tested on: DMS 114 small cell lung
CCRF-CEM leukemia = tested on: CCRF-CEM leukemia
HOP-92 NSCLC = tested on: HOP-92 NSCLC
XF 498 CNS = tested on: XF 498 CNS
LOX IMVI melanoma = tested on: LOX IMVI melanoma
RXF 393 renal = tested on: RXF 393 renal
SNB-78 CNS = tested on: SNB-78 CNS

CCOC(=O)C(=O)Nc1cc(Cl)ccc1Cl
TGI (KM12 colon): > 100 µM | TGI (HCC-2998 colon): > 100 µM | TGI (TK-10 renal): > 100 µM | TGI (KM20L2 colon): > 100 µM | TGI (SF-295 CNS): > 100 µM | TGI (SF-539 CNS): > 100 µM | TGI (EKVX NSCLC): > 100 µM | TGI (NCI-H522 lung): > 100 µM | TGI (SR leukemia): > 100 µM | TGI (K-562 leukemia): > 100 µM | TGI (HOP-18 NSCLC): > 100 µM | TGI (SK-OV-3 ovarian): > 100 µM | TGI (HT29 colon): > 100 µM | TGI (UO-31 renal): > 100 µM | TGI (SK-MEL-5 melanoma): > 100 µM | TGI (LXFL 529 NSCLC): > 100 µM | TGI (MALME-3M melanoma): > 100 µM | TGI (U251 CNS): > 100 µM | TGI (786-0 renal): > 100 µM | TGI (NCI-H460 lung): > 100 µM | TGI (SK-MEL-28 melanoma): > 100 µM | TGI (DLD-1 colon): > 100 µM | TGI (HOP-62 NSCLC): > 100 µM | TGI (SW-620 colon): > 100 µM | TGI (HCT-15 colon): > 100 µM | TGI (A498 renal): > 100 µM | TGI (M19-MEL melanoma): > 100 µM | TGI (COLO 205 colon): > 100 µM | TGI (HCT-116 colon): > 100 µM | TGI (HL-60(TB) leukemia): > 100 µM | TGI (UACC-62 melanoma): > 100 µM | TGI (SK-MEL-2 melanoma): > 100 µM | TGI (DMS 273 small cell lung): > 100 µM | TGI (SN12C renal): > 100 µM | TGI (RPMI-8226 leukemia): > 100 µM | TGI (OVCAR-4 ovarian): > 100 µM | TGI (SNB-75 CNS): > 100 µM | TGI (M14 melanoma): > 100 µM | TGI (ACHN renal): > 100 µM | TGI (OVCAR-3 ovarian): > 100 µM | TGI (SF-268 CNS): > 100 µM | TGI (NCI-H226 lung): > 100 µM | TGI (A549 NSCLC): > 100 µM | TGI (NCI-H23 lung): > 100 µM | TGI (UACC-257 melanoma): > 100 µM | TGI (OVCAR-5 ovarian): > 100 µM | TGI (OVCAR-8 ovarian): > 100 µM | TGI (MOLT-4 leukemia): > 100 µM | TGI (CAKI-1 renal): > 100 µM | TGI (IGROV1 ovarian): > 100 µM | TGI (SNB-19 CNS): > 100 µM | TGI (DMS 114 small cell lung): > 100 µM | TGI (CCRF-CEM leukemia): > 100 µM | TGI (HOP-92 NSCLC): > 100 µM | TGI (XF 498 CNS): > 100 µM

CC1CN1c1c(C(=O)/C=C/c2ccccc2)c(-c2ccccc2)nn(C)c1=O (stereo not given)
TGI (KM12 colon): 44.2 µM | TGI (HCC-2998 colon): 29.9 µM | TGI (TK-10 renal): 61.4 µM | TGI (KM20L2 colon): 36.2 µM | TGI (SF-295 CNS): 46.8 µM | TGI (SF-539 CNS): 30.7 µM | TGI (EKVX NSCLC): 48.2 µM | TGI (NCI-H522 lung): 26.2 µM | TGI (K-562 leukemia): 50.4 µM | TGI (HOP-18 NSCLC): 71.5 µM | TGI (SK-OV-3 ovarian): > 100 µM | TGI (HT29 colon): 29.4 µM | TGI (UO-31 renal): 29.1 µM | TGI (SK-MEL-5 melanoma): 29.4 µM | TGI (LXFL 529 NSCLC): 28.9 µM | TGI (MALME-3M melanoma): 34.9 µM | TGI (U251 CNS): 31.6 µM | TGI (786-0 renal): 30.6 µM | TGI (LOX IMVI melanoma): 31.1 µM | TGI (NCI-H460 lung): 41.2 µM | TGI (SK-MEL-28 melanoma): 47.5 µM | TGI (DLD-1 colon): 34.5 µM | TGI (HOP-62 NSCLC): 46.3 µM | TGI (SW-620 colon): 39.8 µM | TGI (HCT-15 colon): 27.4 µM | TGI (RXF 393 renal): 41.4 µM | TGI (A498 renal): 32.4 µM | TGI (M19-MEL melanoma): 35.1 µM | TGI (COLO 205 colon): 29.7 µM | TGI (HCT-116 colon): 33.2 µM | TGI (HL-60(TB) leukemia): 49.7 µM | TGI (UACC-62 melanoma): 36.6 µM | TGI (SK-MEL-2 melanoma): 29.9 µM | TGI (DMS 273 small cell lung): 30.3 µM | TGI (SN12C renal): 32.6 µM | TGI (OVCAR-4 ovarian): 31.9 µM | TGI (SNB-75 CNS): 40 µM | TGI (M14 melanoma): 32.8 µM | TGI (ACHN renal): 33.7 µM | TGI (OVCAR-3 ovarian): 40.8 µM | TGI (SF-268 CNS): 56.2 µM | TGI (NCI-H226 lung): 45.3 µM | TGI (A549 NSCLC): 70.5 µM | TGI (NCI-H23 lung): 31.8 µM | TGI (UACC-257 melanoma): 36.4 µM | TGI (OVCAR-5 ovarian): 37 µM | TGI (OVCAR-8 ovarian): 41 µM | TGI (MOLT-4 leukemia): 52.7 µM | TGI (CAKI-1 renal): 81.7 µM | TGI (IGROV1 ovarian): 59.8 µM | TGI (SNB-19 CNS): 50.2 µM | TGI (SNB-78 CNS): 33.7 µM | TGI (DMS 114 small cell lung): 43.8 µM | TGI (CCRF-CEM leukemia): 37.9 µM | TGI (HOP-92 NSCLC): 46.7 µM

O=C(O)/C(Cl)=C(\Cl)C(=O)Nc1ccc(Cl)c(Cl)c1Cl
TGI (KM12 colon): 36.6 µM | TGI (HCC-2998 colon): 35.1 µM | TGI (TK-10 renal): 30.9 µM | TGI (KM20L2 colon): 44.7 µM | TGI (SF-295 CNS): 33 µM | TGI (SF-539 CNS): 35.6 µM | TGI (EKVX NSCLC): 37.1 µM | TGI (NCI-H522 lung): 23.7 µM | TGI (SR leukemia): 70.1 µM | TGI (K-562 leukemia): 83.1 µM | TGI (HOP-18 NSCLC): 31 µM | TGI (SK-OV-3 ovarian): 35.2 µM | TGI (HT29 colon): 39.9 µM | TGI (UO-31 renal): 30 µM | TGI (SK-MEL-5 melanoma): 68.9 µM | TGI (LXFL 529 NSCLC): 37.9 µM | TGI (MALME-3M melanoma): 34.9 µM | TGI (U251 CNS): 34.3 µM | TGI (786-0 renal): 32.1 µM | TGI (LOX IMVI melanoma): 31.2 µM | TGI (NCI-H460 lung): 45.9 µM | TGI (SK-MEL-28 melanoma): 42.7 µM | TGI (DLD-1 colon): 47.3 µM | TGI (HOP-62 NSCLC): 62.3 µM | TGI (SW-620 colon): 35.3 µM | TGI (HCT-15 colon): 34.8 µM | TGI (A498 renal): 95.6 µM | TGI (M19-MEL melanoma): 30.8 µM | TGI (COLO 205 colon): 34.8 µM | TGI (HCT-116 colon): 28.1 µM | TGI (HL-60(TB) leukemia): 45.4 µM | TGI (UACC-62 melanoma): 26.1 µM | TGI (SK-MEL-2 melanoma): 33.9 µM | TGI (DMS 273 small cell lung): 36.2 µM | TGI (SN12C renal): 36.7 µM | TGI (RPMI-8226 leukemia): 88.3 µM | TGI (OVCAR-4 ovarian): 33.6 µM | TGI (SNB-75 CNS): 34.8 µM | TGI (M14 melanoma): 32.5 µM | TGI (ACHN renal): 32 µM | TGI (OVCAR-3 ovarian): 35.5 µM | TGI (SF-268 CNS): 42.8 µM | TGI (NCI-H226 lung): 35.5 µM | TGI (A549 NSCLC): 35.2 µM | TGI (NCI-H23 lung): 33.2 µM | TGI (UACC-257 melanoma): 36.2 µM | TGI (OVCAR-5 ovarian): 32.1 µM | TGI (MOLT-4 leukemia): 59.7 µM | TGI (CAKI-1 renal): 32 µM | TGI (IGROV1 ovarian): 38.7 µM | TGI (SNB-19 CNS): 30.2 µM | TGI (SNB-78 CNS): 84.7 µM | TGI (DMS 114 small cell lung): 35.1 µM | TGI (CCRF-CEM leukemia): > 100 µM | TGI (HOP-92 NSCLC): 31.1 µM
